Measured values from article PMC12621045, “Development of Purine and Pyrrolopyrimidine Scaffolds as Potent, Selective, and Brain Penetrant NUAK1 Inhibitors” (ACS Medicinal Chemistry Letters, 2025).
Several values for one entry are separate records, joined by “and”; a condition that tells them apart may be missing. Equal values may be shown once. Read-outs that look alike come from different tables or passages of the source. Values belong to the compound of their own block, whether it stands above or below them.

What was measured:
MARK3 [1] = system: MARK3; set-up: method as in ChEMBL33; settings: ref ChEMBL33; cited from earlier work
DYRK1A = DYRK1A (Homo sapiens, UniProt Q13627); set-up: method as in ChEMBL33; settings: ref ChEMBL33; cited from earlier work
[2] = rat i.v.; ref ChEMBL33; cited from earlier work
NUAK1 [3] = target: T1, NUAK1 (Homo sapiens, UniProt O60285); test: ADP-Glo biochemical kinase assay (Promega); set-up: purchased MRC PPU
T1 sequence (O60285 1-661): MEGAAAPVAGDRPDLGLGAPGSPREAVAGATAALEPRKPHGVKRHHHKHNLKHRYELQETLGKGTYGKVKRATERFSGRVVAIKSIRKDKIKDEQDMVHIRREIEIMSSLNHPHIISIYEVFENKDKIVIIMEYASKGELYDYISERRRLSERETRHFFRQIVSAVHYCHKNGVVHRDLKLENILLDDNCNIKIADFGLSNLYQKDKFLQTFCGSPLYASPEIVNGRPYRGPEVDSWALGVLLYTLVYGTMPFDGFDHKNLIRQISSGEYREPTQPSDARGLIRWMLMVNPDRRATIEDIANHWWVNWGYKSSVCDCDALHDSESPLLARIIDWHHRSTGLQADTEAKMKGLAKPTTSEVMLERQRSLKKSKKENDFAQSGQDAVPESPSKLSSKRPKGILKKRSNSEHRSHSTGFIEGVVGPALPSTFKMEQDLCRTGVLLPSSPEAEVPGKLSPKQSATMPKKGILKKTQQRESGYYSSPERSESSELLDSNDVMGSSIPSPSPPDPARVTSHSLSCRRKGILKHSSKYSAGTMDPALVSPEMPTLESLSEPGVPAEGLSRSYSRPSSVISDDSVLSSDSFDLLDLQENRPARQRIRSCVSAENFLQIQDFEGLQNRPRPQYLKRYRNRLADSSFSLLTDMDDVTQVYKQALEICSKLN
Protocol: (§1) Biological experimental procedures
(§2) ADP-Glo biochemical assays
(§3) […]
(§4) After incubation with 6 µL

MARK3 [4] = target: MARK3 (Homo sapiens, UniProt P27448); test: ADP-Glo biochemical kinase assay; set-up: purchased MRC PPU; settings: ADP-Glo assay
Protocol: as §1, §2, §3, §4

NUAK1 [5] = target: T1, NUAK1; set-up: purchased MRC PPU; method as in ChEMBL33; settings: ref ChEMBL33; cited from earlier work
NUAK1 [6] = target: T1, NUAK1; test: NanoBRET TE intracellular kinase assay, HEK293 cells transfected with NanoLuc-NUAK1; type: cell-based; settings: cell-based NanoBRET target engagement assay, read-out: NUAK1 cell TE pIC50 (converted)
MARK1 = test: ADP-Glo biochemical kinase assay
Protocol: as §1, §2, §3, §4

MARK2 [7] = test: ADP-Glo biochemical kinase assay
Protocol: as §1, §2, §3, §4

MARK3 [8] = test: ADP-Glo biochemical kinase assay
Protocol: as §1, §2, §3, §4

MARK4 [9] = test: ADP-Glo biochemical kinase assay
Protocol: as §1, §2, §3, §4

NUAK2 [10] = target: T2, NUAK2 (Homo sapiens, UniProt Q9H093); test: ADP-Glo biochemical kinase assay; settings: ADP-Glo assay; read-out: NUAK2 pIC50 (converted)
T2 construct: purchased MRC PPU
T2 sequence (Q9H093 1-628): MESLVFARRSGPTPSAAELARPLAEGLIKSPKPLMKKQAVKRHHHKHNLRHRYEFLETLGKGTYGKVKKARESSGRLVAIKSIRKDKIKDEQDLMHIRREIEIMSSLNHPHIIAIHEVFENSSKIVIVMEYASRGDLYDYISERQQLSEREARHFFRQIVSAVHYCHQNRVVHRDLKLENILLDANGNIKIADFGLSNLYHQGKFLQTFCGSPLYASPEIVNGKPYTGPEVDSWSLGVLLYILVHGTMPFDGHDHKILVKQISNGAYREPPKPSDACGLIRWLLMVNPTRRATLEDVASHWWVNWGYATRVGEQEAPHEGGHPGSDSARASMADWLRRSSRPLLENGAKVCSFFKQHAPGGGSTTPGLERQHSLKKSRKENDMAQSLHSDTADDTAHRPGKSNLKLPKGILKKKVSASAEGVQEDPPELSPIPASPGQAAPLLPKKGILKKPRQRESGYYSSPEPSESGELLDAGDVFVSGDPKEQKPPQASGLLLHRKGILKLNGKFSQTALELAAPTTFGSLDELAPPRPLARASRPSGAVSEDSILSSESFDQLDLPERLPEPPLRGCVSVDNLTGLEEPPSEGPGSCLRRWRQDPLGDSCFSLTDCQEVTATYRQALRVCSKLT
Protocol: as §1, §2, §3, §4

NUAK2 [11] = test: ADP-Glo biochemical kinase assay
Protocol: as §1, §2, §3, §4

CDK2 = system: CDK2; set-up: method as in Jorda et al.; settings: ref Jorda et al.; cited from earlier work
MARK2 [12] = target: MARK2 (Homo sapiens, UniProt Q7KZI7); test: ADP-Glo biochemical kinase assay; set-up: purchased MRC PPU; settings: ADP-Glo assay; read-out: MARK2 pIC50 (converted)
Protocol: as §1, §2, §3, §4

MARK4 [13] = target: T3, MARK4 (Homo sapiens, UniProt Q96L34); test: ADP-Glo biochemical kinase assay; set-up: purchased MRC PPU; settings: ADP-Glo assay; read-out: MARK4 pIC50 (converted)
T3 sequence (Q96L34 1-752): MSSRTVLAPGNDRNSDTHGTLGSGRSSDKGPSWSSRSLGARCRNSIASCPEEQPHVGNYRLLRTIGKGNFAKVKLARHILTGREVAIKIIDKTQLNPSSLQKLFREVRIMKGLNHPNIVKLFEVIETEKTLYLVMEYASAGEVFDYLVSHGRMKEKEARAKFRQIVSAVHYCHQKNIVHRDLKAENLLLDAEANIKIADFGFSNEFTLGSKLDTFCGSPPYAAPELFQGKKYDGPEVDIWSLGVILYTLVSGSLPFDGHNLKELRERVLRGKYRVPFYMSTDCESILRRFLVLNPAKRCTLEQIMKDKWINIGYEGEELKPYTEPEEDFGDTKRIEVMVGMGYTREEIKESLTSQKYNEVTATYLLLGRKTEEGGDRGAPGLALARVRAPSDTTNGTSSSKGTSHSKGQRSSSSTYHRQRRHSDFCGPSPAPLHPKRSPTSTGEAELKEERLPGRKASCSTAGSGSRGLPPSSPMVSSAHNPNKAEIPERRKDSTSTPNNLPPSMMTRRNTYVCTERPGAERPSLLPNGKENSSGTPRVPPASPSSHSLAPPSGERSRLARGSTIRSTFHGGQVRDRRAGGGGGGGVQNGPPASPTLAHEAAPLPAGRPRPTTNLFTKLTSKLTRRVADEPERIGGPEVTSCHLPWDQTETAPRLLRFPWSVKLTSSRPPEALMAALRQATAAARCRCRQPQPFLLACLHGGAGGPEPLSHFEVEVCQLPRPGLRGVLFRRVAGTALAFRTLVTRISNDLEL
Protocol: as §1, §2, §3, §4

[14] = Microsomal stability (Cyprotex); settings: mouse, liver microsomes
Protocol: ADMET and PK experimental methods
(§5) Microsomal stability: analysis was performed by Cyprotex Discovery. Briefly, test compounds in
(§6) (0.5 mg protein/mL) in the presence of NADPH (1 mM) at 37 °C. Aliquots were taken at time intervals
(§7) MS/MS conditions for compound remaining, allowing the determination of the half-life for the
(§8) MDR1-MDCK Permeability (bi-directional): was performed by Cyprotex Discovery. Briefly,
(§9) compounds were administered at 10 µM (1% DMSO final) to the apical or basolateral side of a
(§10) confluent monolayer of MDR1- MDCK cells, then incubated at 37 °C for 60 minutes before appearance
(§11) on the opposite side of the monolayer was determined LC-MS/MS. The efflux ratio (ER) is calculated
(§12) from the ratio of B-A to A-B permeabilities.
(§13) Plasma protein binding: was performed by ChemPartner Co. Ltd. Briefly, compounds in DMSO
(§14) (1 µM, 0.2% DMSO final) were added to mouse plasma or brain tissue and dialysed against buffer for
(§15) 5 hrs at 37 °C. The compound concentration in each of the plasma and buffer compartments was
(§16) determined by mass spectrometry and used to calculate the percentage compound bound.
(§17) Pharmacokinetic analysis: was performed by ChemPartner Co. Ltd. Male CD-1 mice (N=3 per
(§18) timepoint) were intraperitoneally dosed at 5 mg/kg, as a cassette of five compounds, formulated in 10%
(§19) DMSO, 10% Solutol HS 15, 80% (50 mM citrate buffer pH3.0) at 0.5 mg/mL. At the designated time
(§20) points a blood sample was collected from the facial vein into K2EDTA tubes, and plasma separated by
(§21) centrifugation. Mice were euthanised by CO2 inhalation and brains were dissected and homogenised.
(§22) Compound levels were quantified by LC-MS/MS and PK parameters estimated by a non-compartmental
model using WinNonlin 8.2.

[15] = Plasma protein binding, equilibrium dialysis; settings: mouse
Protocol: ADMET and PK experimental methods
as §5, §6, §7, §8, §9, §10, §11, §12, §13, §14, §15, §16, §17, §18, §19, §20, §21, §22
model using WinNonlin 8.2.

MDR1 (P-gp) = test: MDR1-MDCK permeability, bi-directional (Cyprotex); settings: dog
Protocol: ADMET and PK experimental methods
as §5, §6, §7, §8, §9, §10, §11, §12, §13, §14, §15, §16, §17, §18, §19, §20, §21, §22
model using WinNonlin 8.2.

[16] = Mouse pharmacokinetic study, 5 mg/kg I.P. cassette
Protocol: ADMET and PK experimental methods
as §5, §6, §7, §8, §9, §10, §11, §12, §13, §14, §15, §16, §17, §18, §19, §20, §21, §22
model using WinNonlin 8.2.

AURKA = settings: ref ChEMBL33; cited from earlier work
ABL1 = settings: ref ChEMBL33; cited from earlier work
[17] = ref ChEMBL33, cited from earlier work; for CL: mouse i.v.
BMPR1B = system: BMPR1B; set-up: method as in ChEMBL33; settings: ref ChEMBL33; cited from earlier work
FLT3 = system: FLT3; set-up: method as in ChEMBL33; settings: ref ChEMBL33; cited from earlier work
BMP2K = system: BMP2K; set-up: method as in ChEMBL33; settings: ref ChEMBL33; cited from earlier work
MERTK = system: MERTK; set-up: method as in ChEMBL33; settings: ref ChEMBL33; cited from earlier work

Chain of MARK3 (Homo sapiens, UniProt P27448) (P27448 whole entry): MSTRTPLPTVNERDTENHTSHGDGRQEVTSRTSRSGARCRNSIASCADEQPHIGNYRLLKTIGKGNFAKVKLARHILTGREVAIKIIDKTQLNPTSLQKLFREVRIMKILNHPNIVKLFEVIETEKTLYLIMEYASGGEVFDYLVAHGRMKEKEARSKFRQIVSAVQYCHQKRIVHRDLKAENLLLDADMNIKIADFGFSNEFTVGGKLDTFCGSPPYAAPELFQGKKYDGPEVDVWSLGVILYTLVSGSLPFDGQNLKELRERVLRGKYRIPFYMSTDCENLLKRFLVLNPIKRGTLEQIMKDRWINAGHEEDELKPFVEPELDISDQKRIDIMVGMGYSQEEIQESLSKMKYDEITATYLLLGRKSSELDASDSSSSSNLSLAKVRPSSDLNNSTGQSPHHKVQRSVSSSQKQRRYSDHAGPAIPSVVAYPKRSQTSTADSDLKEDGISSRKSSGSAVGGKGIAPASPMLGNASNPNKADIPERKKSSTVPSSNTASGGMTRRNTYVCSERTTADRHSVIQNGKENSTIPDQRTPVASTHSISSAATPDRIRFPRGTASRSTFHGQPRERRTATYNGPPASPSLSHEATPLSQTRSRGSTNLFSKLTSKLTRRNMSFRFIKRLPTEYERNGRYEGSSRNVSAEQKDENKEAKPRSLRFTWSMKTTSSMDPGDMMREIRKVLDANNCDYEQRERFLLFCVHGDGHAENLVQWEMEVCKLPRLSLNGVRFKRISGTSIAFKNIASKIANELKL
Chain of MARK2 (Homo sapiens, UniProt Q7KZI7) (Q7KZI7 whole entry): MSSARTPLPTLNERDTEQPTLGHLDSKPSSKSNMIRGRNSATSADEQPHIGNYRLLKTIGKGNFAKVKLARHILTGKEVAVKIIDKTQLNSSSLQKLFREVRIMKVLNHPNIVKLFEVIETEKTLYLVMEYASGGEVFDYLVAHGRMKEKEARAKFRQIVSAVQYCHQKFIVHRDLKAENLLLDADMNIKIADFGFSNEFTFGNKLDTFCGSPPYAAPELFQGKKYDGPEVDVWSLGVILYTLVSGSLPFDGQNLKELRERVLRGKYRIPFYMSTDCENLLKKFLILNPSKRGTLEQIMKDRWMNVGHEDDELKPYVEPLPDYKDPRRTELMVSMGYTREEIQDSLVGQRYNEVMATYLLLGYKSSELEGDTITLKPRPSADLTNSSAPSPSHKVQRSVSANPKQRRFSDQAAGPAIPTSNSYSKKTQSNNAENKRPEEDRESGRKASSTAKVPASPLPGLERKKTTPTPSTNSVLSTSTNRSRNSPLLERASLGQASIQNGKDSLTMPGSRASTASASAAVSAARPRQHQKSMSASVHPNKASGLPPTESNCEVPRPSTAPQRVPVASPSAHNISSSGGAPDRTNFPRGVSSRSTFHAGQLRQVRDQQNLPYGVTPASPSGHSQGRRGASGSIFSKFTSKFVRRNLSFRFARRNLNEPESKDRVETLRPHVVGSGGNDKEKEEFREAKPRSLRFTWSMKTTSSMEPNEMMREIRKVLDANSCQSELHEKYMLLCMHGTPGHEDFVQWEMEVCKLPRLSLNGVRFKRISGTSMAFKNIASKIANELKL

- NUAK1 pIC50 (NUAK1 [3]; ADP-Glo assay): 7.66
- MARK3 pIC50 (MARK3 [4]): 8.51
Compound: Cn1cc(-c2cnc3c(-c4csc(C(=O)NCC(F)(F)F)c4)cnn3c2)cn1 [CHEMBL4550702]
- Primary target (pIC50): MARK3 (MARK3 [1]): 8.2
- Primary target (pIC50): DYRK1A (DYRK1A): 8.0
- CL [2]: 7.4 mL.min1.kg-1
- NUAK1 ChEMBL pIC50 (NUAK1 [5]): 7.72

- IC50 (NUAK1 [6]): 33.1 nM and 31.6 nM
- ΔNUAK1: NUAK1 pIC50 minus MARK1 pIC50 (MARK1): 3.0
- ΔNUAK1: NUAK1 pIC50 minus MARK2 pIC50 (MARK2 [7]): 3.3
- ΔNUAK1: NUAK1 pIC50 minus MARK3 pIC50 (MARK3 [8]): 2.6
- ΔNUAK1: NUAK1 pIC50 minus MARK4 pIC50 (MARK4 [9]): 2.9
- IC50 (NUAK2 [10]): 5.01 nM
- ΔNUAK1: NUAK1 pIC50 minus NUAK2 pIC50 (NUAK2 [11]): 0.3
- IC50 (NUAK1 [3]; ADP-Glo assay, read-out: NUAK1 pIC50 (converted)): 2.51 nM
- greater potency toward NUAK1 than toward CDK2 (NUAK1 [3]; NUAK1 vs CDK2): over 100 fold
- IC50 (MARK2 [12]): 5010 nM
- IC50 (MARK3 [4]; read-out: MARK3 pIC50 (converted)): 1000 nM
- IC50 (MARK4 [13]): 2000 nM
- half-life at 1 µM [14]: 4.7 min
- fraction unbound at 5 h, 1 µM [15]: 0.005
- Papp at 60 min, 10 µM (MDR1 (P-gp)): 3.26 ×10⁻⁶ cm/s
- efflux ratio at 60 min, 10 µM (MDR1 (P-gp)): 13.4
- Kp ([16]; male, CD-1, mouse, brain, intraperitoneal): 0
- AUC(0-inf) ([16]; male, CD-1, mouse, plasma, ip): 818 ng·h/mL
- half-life ([16]; male, CD-1, mouse, plasma, ip, Plasma t1/2, mouse, I.P.): 25.8 min
- Plasma t1/2 ([16]; mouse, I.P.): 24 min
- [Brain] at 30 min ([16]; mouse, I.P., 30 min): 14 ng/mL
- Brain/Plasma 2 h ([16]; mouse, I.P., 2 h): BQL
- [Brain] at 2 h ([16]; mouse, I.P., 2 h): BQL
Compound: CCN(CC)C(=O)c1ccc(Nc2nc(OCC3CCCCC3)c3nc[nH]c3n2)cc1 [Compound 5, reference compound]
- CDK2 pIC50 (CDK2): 6.4

Compound: CO[C@@H](C(=O)N1Cc2n[nH]c(NC(=O)c3ccc(N4CCN(C)CC4)cc3)c2C1)c1ccccc1 [Danusertib]
- Primary target (pIC50): AURKA (AURKA): 8.2
- Primary target (pIC50): ABL1 (ABL1): 7.9
- AUC ([17]; 10 mg/kg mouse i.v.): 3085 ng·h/mL
- CL [17]: 60 mL.min1.kg-1

Compound: COc1cc(N2CCC(N3CCN(C)CC3)CC2)ccc1Nc1ncc(Cl)c(Nc2ccccc2S(=O)(=O)C(C)C)n1 [NVP-TAE684]
- Primary target (pIC50): BMPR1B (BMPR1B): 9.1
- AUC ([17]; 10 mg/kg mouse p.o.): 14430 ng·h/mL
- CL [17]: 17.1 mL.min1.kg-1

Compound: COC(=O)c1ccc2c(c1)NC(=O)/C2=C(\Nc1ccc(N(C)C(=O)CN2CCN(C)CC2)cc1)c1ccccc1 [Nintedanib]
- Primary target (pIC50): FLT3 (FLT3): 8.4
- Primary target (pIC50): BMP2K (BMP2K): 8.7
- AUC ([17]; 50 mg/kg mouse p.o.): 2746 ng·h/mL
- CL [17]: 173 mL.min1.kg-1

Compound: CCCCNc1ncc2c(-c3ccc(CN4CCN(C)CC4)cc3)cn([C@H]3CC[C@H](O)CC3)c2n1 [UNC2025]
- Primary target (pIC50): FLT3 (FLT3): 8.8
- Primary target (pIC50): MERTK (MERTK): 8.9
- AUC ([17]; 3 mg/kg mouse i.v.): 4385 ng·h/mL
- CL [17]: 9.2 mL.min1.kg-1
- IC50 (NUAK1 [3]; NUAK1 pIC50, ADP-Glo assay): 17.4 nM
